Test results: the kinase profiling compilation of Christmann-Franck et al. (2016)

Tests used:
Experiment in all cases: KINOMEscan competition binding
Conditions in all cases: compound 10.0 µM
MAP2K6 (human) = MAP2K6 (human) (UniProt P52564)
EPHA1 (human) = EPHA1 (human) (UniProt P21709)
MAP4K2 (human) = MAP4K2 (human) (UniProt Q12851)
STK11 (human) = STK11 (human) (UniProt Q15831)
CDK9 (human) = CDK9 (human) (UniProt P50750)
ANKK1 (human) = ANKK1 (human) (UniProt Q8NFD2)
PLK3 (human) = PLK3 (human) (UniProt Q9H4B4)
TGFBR2 (human) = TGFBR2 (human) (UniProt P37173)
NUAK1 (human) = NUAK1 (human) (UniProt O60285)
MAP4K4 (human) = MAP4K4 (human) (UniProt O95819)
TYRO3 (human) = TYRO3 (human) (UniProt Q06418)
PKN2 (human) = PKN2 (human) (UniProt Q16513)
CDK17 (human) = CDK17 (human) (UniProt Q00537)
MAP3K1 (human) = MAP3K1 (human) (UniProt Q13233)
RPS6KA2 KD1 (human) = RPS6KA2 KD1 (human) (UniProt Q15349)
[1] = system: ABL1 (human), P00519 [M351T]
[2] = system: PIK3CA (human), P42336 [E542K]
[3] = biological target: JAK1 JH1 catalytic (human) (UniProt P23458)
CAMK2D (human) = CAMK2D (human) (UniProt Q13557)
DYRK1B (human) = DYRK1B (human) (UniProt Q9Y463)
MAPK9 (human) = MAPK9 (human) (UniProt P45984)
PDPK1 (human) = PDPK1 (human) (UniProt O15530)
SYK (human) = SYK (human) (UniProt P43405)
MAST1 (human) = MAST1 (human) (UniProt Q9Y2H9)
[4] = system: RET (human), P07949 [M918T]
[5] = system: FGFR3 (human), P22607 [G697C]
SBK1 (human) = SBK1 (human) (UniProt Q52WX2)
TGFBR1 (human) = TGFBR1 (human) (UniProt P36897)
RPS6KA6 KD2 (human) = RPS6KA6 KD2 (human) (UniProt Q9UK32)
CDKL3 (human) = CDKL3 (human) (UniProt Q8IVW4)
MARK3 (human) = MARK3 (human) (UniProt P27448)
MAP2K2 (human) = MAP2K2 (human) (UniProt P36507)
SIK1 (human) = SIK1 (human) (UniProt P57059)
EPHB4 (human) = EPHB4 (human) (UniProt P54760)
STK32B (human) = STK32B (human) (UniProt Q9NY57)
TIE1 (human) = TIE1 (human) (UniProt P35590)
MYO3A (human) = MYO3A (human) (UniProt Q8NEV4)
[6] = system: PIK3CA (human), P42336 [M1043I]
IRAK1 (human) = IRAK1 (human) (UniProt P51617)
LATS1 (human) = LATS1 (human) (UniProt O95835)
MAP3K10 (human) = MAP3K10 (human) (UniProt Q02779)
Sequence of MAP3K10 (human) (Q02779 whole entry, looked up): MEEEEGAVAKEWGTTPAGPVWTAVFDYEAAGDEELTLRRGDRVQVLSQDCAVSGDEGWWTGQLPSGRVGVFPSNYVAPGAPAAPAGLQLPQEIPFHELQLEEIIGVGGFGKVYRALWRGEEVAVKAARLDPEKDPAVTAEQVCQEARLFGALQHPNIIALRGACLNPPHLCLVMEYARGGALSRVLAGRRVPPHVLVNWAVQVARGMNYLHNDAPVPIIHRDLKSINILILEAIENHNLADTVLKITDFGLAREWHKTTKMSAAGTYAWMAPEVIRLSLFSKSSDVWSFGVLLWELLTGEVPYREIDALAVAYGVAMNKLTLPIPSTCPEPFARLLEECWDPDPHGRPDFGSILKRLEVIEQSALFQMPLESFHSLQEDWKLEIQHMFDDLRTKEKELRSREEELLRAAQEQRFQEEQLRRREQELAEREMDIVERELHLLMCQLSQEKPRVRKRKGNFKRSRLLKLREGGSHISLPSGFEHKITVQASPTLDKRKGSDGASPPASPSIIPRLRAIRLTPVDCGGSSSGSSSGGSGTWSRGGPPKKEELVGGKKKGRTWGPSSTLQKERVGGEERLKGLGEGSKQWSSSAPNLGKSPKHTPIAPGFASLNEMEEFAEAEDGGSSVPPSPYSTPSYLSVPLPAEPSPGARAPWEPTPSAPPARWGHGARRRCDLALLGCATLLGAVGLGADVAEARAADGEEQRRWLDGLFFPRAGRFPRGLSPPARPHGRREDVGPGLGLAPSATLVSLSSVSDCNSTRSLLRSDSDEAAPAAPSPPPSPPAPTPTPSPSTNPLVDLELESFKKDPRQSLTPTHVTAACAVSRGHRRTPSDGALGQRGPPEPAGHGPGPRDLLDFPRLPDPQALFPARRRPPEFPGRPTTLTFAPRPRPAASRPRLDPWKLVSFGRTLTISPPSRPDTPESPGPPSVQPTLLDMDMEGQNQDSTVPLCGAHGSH

Sequence of CDKL3 (human) (Q8IVW4 whole entry, looked up): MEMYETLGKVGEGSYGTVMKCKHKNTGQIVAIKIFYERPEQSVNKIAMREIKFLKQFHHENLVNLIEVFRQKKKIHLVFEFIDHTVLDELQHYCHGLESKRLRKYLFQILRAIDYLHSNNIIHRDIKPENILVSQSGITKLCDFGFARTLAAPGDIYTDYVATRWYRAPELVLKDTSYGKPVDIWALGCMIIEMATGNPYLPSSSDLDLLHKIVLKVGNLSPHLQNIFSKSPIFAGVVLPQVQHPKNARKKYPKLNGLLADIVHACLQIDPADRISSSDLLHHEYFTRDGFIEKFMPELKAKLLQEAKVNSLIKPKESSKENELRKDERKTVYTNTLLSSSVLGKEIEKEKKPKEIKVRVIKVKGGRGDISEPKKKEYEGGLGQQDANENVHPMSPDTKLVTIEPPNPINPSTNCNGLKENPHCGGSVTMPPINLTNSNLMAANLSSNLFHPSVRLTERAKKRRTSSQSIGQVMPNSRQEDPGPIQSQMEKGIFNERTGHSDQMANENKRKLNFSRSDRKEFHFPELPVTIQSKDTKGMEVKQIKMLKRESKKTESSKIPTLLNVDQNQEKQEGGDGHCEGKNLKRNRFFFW
Sequence of LATS1 (human) (O95835 whole entry, looked up): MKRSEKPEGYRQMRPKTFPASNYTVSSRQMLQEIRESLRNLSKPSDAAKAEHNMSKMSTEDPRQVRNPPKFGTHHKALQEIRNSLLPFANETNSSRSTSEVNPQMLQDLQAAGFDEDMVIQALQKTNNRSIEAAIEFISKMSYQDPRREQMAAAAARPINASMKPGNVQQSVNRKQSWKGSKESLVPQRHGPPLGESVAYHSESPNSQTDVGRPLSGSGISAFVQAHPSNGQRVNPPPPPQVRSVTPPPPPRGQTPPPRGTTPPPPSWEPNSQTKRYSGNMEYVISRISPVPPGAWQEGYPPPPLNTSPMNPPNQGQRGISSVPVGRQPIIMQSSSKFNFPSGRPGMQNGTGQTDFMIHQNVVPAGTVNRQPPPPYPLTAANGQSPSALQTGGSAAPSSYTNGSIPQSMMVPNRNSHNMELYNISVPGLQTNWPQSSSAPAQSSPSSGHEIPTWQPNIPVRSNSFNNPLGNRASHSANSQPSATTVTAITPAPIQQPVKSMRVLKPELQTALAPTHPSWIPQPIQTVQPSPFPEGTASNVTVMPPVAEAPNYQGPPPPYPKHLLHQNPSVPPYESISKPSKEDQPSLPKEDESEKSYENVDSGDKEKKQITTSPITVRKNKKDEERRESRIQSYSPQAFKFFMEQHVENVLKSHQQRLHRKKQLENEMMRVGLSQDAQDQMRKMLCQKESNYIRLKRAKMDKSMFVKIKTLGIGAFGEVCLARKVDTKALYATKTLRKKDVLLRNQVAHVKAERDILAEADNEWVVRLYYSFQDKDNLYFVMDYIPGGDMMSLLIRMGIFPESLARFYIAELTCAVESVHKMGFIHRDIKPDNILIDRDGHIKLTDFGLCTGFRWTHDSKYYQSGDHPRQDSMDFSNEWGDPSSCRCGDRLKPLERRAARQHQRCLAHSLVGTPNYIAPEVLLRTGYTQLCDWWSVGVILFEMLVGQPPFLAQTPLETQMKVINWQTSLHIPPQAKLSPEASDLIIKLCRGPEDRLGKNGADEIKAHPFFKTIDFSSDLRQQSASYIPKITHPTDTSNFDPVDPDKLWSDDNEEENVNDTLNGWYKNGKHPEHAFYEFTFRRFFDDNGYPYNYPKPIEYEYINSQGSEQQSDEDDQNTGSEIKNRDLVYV
Sequence of PIK3CA (human), P42336 [M1043I] (P42336 whole entry M1043I, looked up): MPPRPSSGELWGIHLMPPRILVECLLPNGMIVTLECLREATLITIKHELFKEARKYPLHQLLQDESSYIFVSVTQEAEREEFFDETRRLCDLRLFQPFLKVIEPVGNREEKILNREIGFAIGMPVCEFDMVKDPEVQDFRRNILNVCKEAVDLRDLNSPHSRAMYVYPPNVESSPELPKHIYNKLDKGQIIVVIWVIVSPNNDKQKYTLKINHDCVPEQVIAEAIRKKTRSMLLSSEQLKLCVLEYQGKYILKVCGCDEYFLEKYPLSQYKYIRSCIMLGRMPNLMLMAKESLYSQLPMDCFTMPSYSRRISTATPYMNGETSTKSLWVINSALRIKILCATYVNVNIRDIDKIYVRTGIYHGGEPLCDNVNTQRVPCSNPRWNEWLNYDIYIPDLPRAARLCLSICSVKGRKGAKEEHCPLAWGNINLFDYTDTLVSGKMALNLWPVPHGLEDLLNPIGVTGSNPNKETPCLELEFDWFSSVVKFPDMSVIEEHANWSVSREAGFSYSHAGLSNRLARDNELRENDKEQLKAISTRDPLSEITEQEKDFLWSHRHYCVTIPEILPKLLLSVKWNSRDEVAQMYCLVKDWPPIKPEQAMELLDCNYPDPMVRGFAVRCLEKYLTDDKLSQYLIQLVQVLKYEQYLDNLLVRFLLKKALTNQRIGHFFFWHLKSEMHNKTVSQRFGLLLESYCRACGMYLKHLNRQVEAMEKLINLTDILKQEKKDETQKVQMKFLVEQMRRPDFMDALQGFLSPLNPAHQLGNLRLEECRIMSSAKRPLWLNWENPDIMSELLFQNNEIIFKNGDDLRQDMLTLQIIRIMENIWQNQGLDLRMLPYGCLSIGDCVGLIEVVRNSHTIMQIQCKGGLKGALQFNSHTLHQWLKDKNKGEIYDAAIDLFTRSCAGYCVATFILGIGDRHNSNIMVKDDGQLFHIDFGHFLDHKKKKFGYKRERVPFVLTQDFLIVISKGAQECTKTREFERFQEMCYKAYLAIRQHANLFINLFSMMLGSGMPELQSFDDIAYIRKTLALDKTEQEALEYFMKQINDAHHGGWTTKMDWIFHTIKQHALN
Sequence of DYRK1B (human) (Q9Y463 whole entry, looked up): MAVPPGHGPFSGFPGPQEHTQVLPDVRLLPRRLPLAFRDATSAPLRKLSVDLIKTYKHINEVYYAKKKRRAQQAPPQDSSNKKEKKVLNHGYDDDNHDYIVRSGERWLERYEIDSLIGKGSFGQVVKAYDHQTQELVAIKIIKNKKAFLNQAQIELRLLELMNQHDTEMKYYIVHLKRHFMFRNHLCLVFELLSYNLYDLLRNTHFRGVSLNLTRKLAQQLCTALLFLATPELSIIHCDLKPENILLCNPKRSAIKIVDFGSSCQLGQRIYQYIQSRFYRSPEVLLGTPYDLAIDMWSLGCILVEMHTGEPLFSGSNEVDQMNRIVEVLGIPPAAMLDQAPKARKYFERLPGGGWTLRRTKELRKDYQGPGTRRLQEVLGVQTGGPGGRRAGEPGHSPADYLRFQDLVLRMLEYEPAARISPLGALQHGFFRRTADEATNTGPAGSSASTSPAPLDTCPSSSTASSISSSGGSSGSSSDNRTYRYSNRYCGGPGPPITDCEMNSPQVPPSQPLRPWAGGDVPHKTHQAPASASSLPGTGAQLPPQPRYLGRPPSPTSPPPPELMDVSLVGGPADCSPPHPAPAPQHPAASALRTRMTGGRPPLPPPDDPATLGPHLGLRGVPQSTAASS
Sequence of CAMK2D (human) (Q13557 whole entry, looked up): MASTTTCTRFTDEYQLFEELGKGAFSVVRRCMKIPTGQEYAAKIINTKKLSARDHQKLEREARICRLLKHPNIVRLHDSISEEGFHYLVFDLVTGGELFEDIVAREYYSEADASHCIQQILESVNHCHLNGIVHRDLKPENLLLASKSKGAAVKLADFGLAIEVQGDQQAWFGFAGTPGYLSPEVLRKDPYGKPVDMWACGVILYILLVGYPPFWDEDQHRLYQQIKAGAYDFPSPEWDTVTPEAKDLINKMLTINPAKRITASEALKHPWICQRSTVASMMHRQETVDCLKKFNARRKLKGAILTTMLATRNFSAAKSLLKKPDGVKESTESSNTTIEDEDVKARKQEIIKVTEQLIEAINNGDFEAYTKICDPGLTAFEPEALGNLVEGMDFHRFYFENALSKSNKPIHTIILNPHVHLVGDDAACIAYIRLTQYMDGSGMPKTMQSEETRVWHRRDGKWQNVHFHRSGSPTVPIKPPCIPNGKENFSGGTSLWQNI
Sequence of PIK3CA (human), P42336 [E542K] (P42336 whole entry E542K, looked up): as the sequence (P42336 whole entry M1043I, looked up) above, with E542K, I1043M counted along it

A kinase still bound, per cent of control (MAP2K6 (human)) of 57%, a kinase still bound, per cent of control (EPHA1 (human)) of 100% and a kinase still bound, per cent of control (MAP4K2 (human)) of 100% were found for `Cn1cc(C2=C(c3ccc(Cl)cc3Cl)C(=O)NC2=O)c2ccccc21` in this work. It also gave a kinase still bound, per cent of control (STK11 (human)) of 60%, a kinase still bound, per cent of control (CDK9 (human)) of 92% and a kinase still bound, per cent of control (ANKK1 (human)) of 86%. For the same molecule, the kinase still bound, per cent of control (PLK3 (human)) was 97%, the kinase still bound, per cent of control (TGFBR2 (human)) was 100% and the kinase still bound, per cent of control (NUAK1 (human)) was 90%. The kinase still bound, per cent of control (MAP4K4 (human)) was 76%, the kinase still bound, per cent of control (TYRO3 (human)) was 100% and the kinase still bound, per cent of control (PKN2 (human)) was 100%. It also gave a kinase still bound, per cent of control (CDK17 (human)) of 12%, a kinase still bound, per cent of control (MAP3K1 (human)) of 100% and a kinase still bound, per cent of control (RPS6KA2 KD1 (human)) of 73%. It also gave a kinase still bound, per cent of control [1] of 82%, a kinase still bound, per cent of control [2] of 100% and a kinase still bound, per cent of control [3] of 90%. For the same molecule, the kinase still bound, per cent of control (CAMK2D (human)) was 56%, the kinase still bound, per cent of control (DYRK1B (human)) was 2.2% and the kinase still bound, per cent of control (MAPK9 (human)) was 59%. It also gave a kinase still bound, per cent of control (PDPK1 (human)) of 100%, a kinase still bound, per cent of control (SYK (human)) of 92% and a kinase still bound, per cent of control (MAST1 (human)) of 82%. For the same molecule, the kinase still bound, per cent of control [4] was 100%, the kinase still bound, per cent of control [5] was 100% and the kinase still bound, per cent of control (SBK1 (human)) was 97%. It also gave a kinase still bound, per cent of control (TGFBR1 (human)) of 96%, a kinase still bound, per cent of control (RPS6KA6 KD2 (human)) of 55% and a kinase still bound, per cent of control (CDKL3 (human)) of 100%. It also gave a kinase still bound, per cent of control (MARK3 (human)) of 86%, a kinase still bound, per cent of control (MAP2K2 (human)) of 100% and a kinase still bound, per cent of control (SIK1 (human)) of 90%. For the same molecule, the kinase still bound, per cent of control (EPHB4 (human)) was 100%, the kinase still bound, per cent of control (STK32B (human)) was 100% and the kinase still bound, per cent of control (TIE1 (human)) was 99%. It also gave a kinase still bound, per cent of control (MYO3A (human)) of 95%, a kinase still bound, per cent of control [6] of 100% and a kinase still bound, per cent of control (IRAK1 (human)) of 100%. The kinase still bound, per cent of control (LATS1 (human)) was 100% and the kinase still bound, per cent of control (MAP3K10 (human)) was 100%.

A kinase still bound, per cent of control (MAP2K6 (human)) of 47%, a kinase still bound, per cent of control (EPHA1 (human)) of 85% and a kinase still bound, per cent of control (MAP4K2 (human)) of 8.5% were found for `O=C1Nc2cc(Br)ccc2/C1=C1/Nc2ccccc2/C1=N\O` in this work. It also gave a kinase still bound, per cent of control (STK11 (human)) of 2.7%, a kinase still bound, per cent of control (CDK9 (human)) of 26% and a kinase still bound, per cent of control (ANKK1 (human)) of 4.8%. For the same molecule, the kinase still bound, per cent of control (PLK3 (human)) was 100%, the kinase still bound, per cent of control (TGFBR2 (human)) was 58% and the kinase still bound, per cent of control (NUAK1 (human)) was 12%. The kinase still bound, per cent of control (MAP4K4 (human)) was 8%, the kinase still bound, per cent of control (TYRO3 (human)) was 91% and the kinase still bound, per cent of control (PKN2 (human)) was 29%. It also gave a kinase still bound, per cent of control (CDK17 (human)) of 12%, a kinase still bound, per cent of control (MAP3K1 (human)) of 100% and a kinase still bound, per cent of control (RPS6KA2 KD1 (human)) of 2.2%. The kinase still bound, per cent of control [1] was 2.2%, the kinase still bound, per cent of control [2] was 100% and the kinase still bound, per cent of control [3] was 42%. It also gave a kinase still bound, per cent of control (CAMK2D (human)) of 2.1%, a kinase still bound, per cent of control (DYRK1B (human)) of 13% and a kinase still bound, per cent of control (MAPK9 (human)) of 63%. It also gave a kinase still bound, per cent of control (PDPK1 (human)) of 20%, a kinase still bound, per cent of control (SYK (human)) of 4.6% and a kinase still bound, per cent of control (MAST1 (human)) of 2.8%. For the same molecule, the kinase still bound, per cent of control [4] was 0%, the kinase still bound, per cent of control [5] was 14% and the kinase still bound, per cent of control (SBK1 (human)) was 61%. It also gave a kinase still bound, per cent of control (TGFBR1 (human)) of 83%, a kinase still bound, per cent of control (RPS6KA6 KD2 (human)) of 83% and a kinase still bound, per cent of control (CDKL3 (human)) of 82%. It also gave a kinase still bound, per cent of control (MARK3 (human)) of 28%, a kinase still bound, per cent of control (MAP2K2 (human)) of 26% and a kinase still bound, per cent of control (SIK1 (human)) of 2.6%. For the same molecule, the kinase still bound, per cent of control (EPHB4 (human)) was 48%, the kinase still bound, per cent of control (STK32B (human)) was 100% and the kinase still bound, per cent of control (TIE1 (human)) was 55%. It also gave a kinase still bound, per cent of control (MYO3A (human)) of 60%, a kinase still bound, per cent of control [6] of 100% and a kinase still bound, per cent of control (IRAK1 (human)) of 39%. For the same molecule, the kinase still bound, per cent of control (LATS1 (human)) was 70% and the kinase still bound, per cent of control (MAP3K10 (human)) was 100%.
